Measured values reported in EPA's ToxRefDB 2.

How the values were obtained:
dog [1] = settings: Chronic toxicity, beagle, Oral, Feed, dose end: 52 week, group: systemic
mouse [2] = settings: Subchronic oral toxicity in rodents, cd1, Feed, dose end: 13 week, group: systemic
rat [3] = settings: Combined chronic toxicity/carcinogenicity, sprague dawley, Oral, Feed, dose end: 24 month, group: systemic
rat [4] = settings: Prenatal developmental toxicity study, sprague dawley, Oral, Gavage/Intubation, dose end: 15 GD
mouse [5] = settings: Carcinogenicity, cd1, Oral, Feed, dose end: 24 month, group: systemic
mouse [6] = settings: Subchronic oral toxicity in rodents, cd1, Feed, dose end: 17 week, group: systemic, systemic / organ weight / liver / absolute + systemic / organ weight / liver / relative to body weight + systemic / organ weight / liver / …
mouse [7] = settings: Subchronic oral toxicity in rodents, cd1, Feed, dose end: 13 week, group: systemic, systemic / pathology microscopic / liver / hypertrophy + systemic / pathology microscopic / liver / necrosis + systemic / pathology …
rabbit = settings: Prenatal developmental toxicity study, new zealand white, Oral, Gavage/Intubation, dose end: 19 GD
rat [8] = settings: Subchronic oral toxicity in rodents, other, Feed, dose end: 3 month, group: systemic
dog [9] = settings: Subchronic oral toxicity in nonrodent, beagle, Feed, dose end: 13 week, group: systemic, systemic / pathology microscopic / stomach / [other]
rat [10] = settings: Multigenerational reproductive toxicity study, other, Oral, Feed, dose end: 2 generation
rat [11] = settings: Prenatal developmental toxicity study, sprague dawley, Oral, Gavage/Intubation, dose end: 15 GD; remark: listed apart in the source
mouse [12] = settings: Carcinogenicity, cd1, Oral, Feed, dose end: 18 month, group: systemic
[13] = systemic / pathology microscopic / mammary gland / hypertrophy
[14] = systemic / pathology microscopic / stomach / hyperemia
[15] = systemic / pathology microscopic / liver / hypertrophy + systemic / pathology microscopic / liver / necrosis + systemic / pathology …
[16] = systemic / in life observation / body weight / body weight gain + systemic / pathology microscopic / liver / hypertrophy + systemic / …
[17] = group: developmental, developmental / developmental malformation / bone / short + developmental / developmental malformation / bone / unossified + developmental…
[18] = group: maternal, systemic / in life observation / body weight / body weight gain + systemic / in life observation / food consumption / food consumption
[19] = group: maternal, systemic / in life observation / body weight / body weight gain + systemic / in life observation / food consumption / food consumption + …
[20] = systemic / pathology microscopic / liver / lesion(s) (nos) + systemic / organ weight / liver / nos
[21] = group: developmental, developmental / developmental malformation / bone / full supernumerary
[22] = systemic / in life observation / body weight / body weight gain
[23] = group: offspring, systemic / in life observation / body weight / offspring (pup) weight + systemic / pathology microscopic / liver / hypertrophy
[24] = group: offspring, systemic / in life observation / body weight / offspring (pup) weight + systemic / pathology microscopic / liver / hypertrophy + …
[25] = group: parental, systemic / pathology microscopic / liver / hypertrophy
[26] = group: parental, systemic / pathology microscopic / liver / hypertrophy + systemic / in life observation / food consumption / food consumption + systemic / …
[27] = group: reproductive, reproductive / offspring survival early / litter size / litter size + reproductive / offspring survival early / birth index / live birth …
[28] = group: developmental, developmental / developmental malformation / mouth / jaw / cleft palate + systemic / in life observation / body weight / fetal weight
[29] = group: maternal, systemic / in life observation / body weight / body weight gain + systemic / in life observation / clinical signs / ataxia + systemic / in …
[30] = systemic / pathology microscopic / liver / hypertrophy + systemic / organ weight / liver / absolute + systemic / organ weight / liver / …

In the case of `CCCC1COC(Cn2cncn2)(c2ccc(Cl)cc2Cl)O1` (configuration not stated) [Propiconazole], the LEL (dog [1]; [13]) is reported as 1.9 mg/kg/day, the NEL (dog [1]; [13]) is reported as 0.2 mg/kg/day and the LOAEL (dog [1]; [14]) is reported as 8.4 mg/kg/day. It also gave an NOAEL (dog [1]; [14]) of 1.9 mg/kg/day, an LOAEL (mouse [2]; systemic / pathology microscopic / liver / hypertrophy) of 65 mg/kg/day and an LEL (mouse [2]; systemic / pathology microscopic / liver / hypertrophy + systemic / pathology microscopic / liver / necrosis) of 65 mg/kg/day. It also gave an NEL (mouse [2]; [15]) of 2.7 mg/kg/day, an NOAEL (mouse [2]; [15]) of 2.7 mg/kg/day and an LEL (rat [3]; [16]) of 96.4 mg/kg/day. The LOAEL (rat [3]; [16]) was 96.4 mg/kg/day, the NOAEL (rat [3]; [16]) was 18.1 mg/kg/day and the NEL (rat [3]; systemic / organ weight / liver / nos) was 18.1 mg/kg/day. It also gave an LEL (rat [4]; [17]) of 90 mg/kg/day, an LOAEL (rat [4]; [17]) of 90 mg/kg/day and an NEL (rat [4]; [17]) of 30 mg/kg/day. For the same compound, the NOAEL (rat [4]; [17]) was 30 mg/kg/day, the LEL (rat [4]; [18]) was 90 mg/kg/day and the NEL (rat [4]; [19]) was 30 mg/kg/day. The NOAEL (rat [4]; [19]) was 90 mg/kg/day, the LOAEL (rat [4]; group: maternal, systemic / in life observation / clinical signs / ataxia + systemic / in life observation / clinical signs / lethargy + systemic / in life …) was 300 mg/kg/day and the NEL (mouse [5]; systemic / organ weight / liver / nos + systemic / clinical chemistry / alanine aminotransferase (alt/sgpt) / alanine aminotransferase (alt/…) was 10 mg/kg/day. The LEL (mouse [5]; [20]) was 49.4 mg/kg/day, the LOAEL (mouse [5]; [20]) was 49.4 mg/kg/day and the NOAEL (mouse [5]; systemic / pathology microscopic / liver / lesion(s) (nos) + systemic / organ weight / liver / nos + systemic / pathology microscopic / …) was 10 mg/kg/day. The LEL (mouse [6]) was 65 mg/kg/day, the LOAEL (mouse [6]) was 65 mg/kg/day and the NEL (mouse [6]) was 2.7 mg/kg/day. It also gave an NOAEL (mouse [6]) of 2.7 mg/kg/day, an LEL (mouse [7]) of 65 mg/kg/day and an LOAEL (mouse [7]) of 65 mg/kg/day. For the same compound, the NEL (mouse [7]) was 2.7 mg/kg/day, the NOAEL (mouse [7]) was 2.7 mg/kg/day and the LEL (rabbit; [21]) was 400 mg/kg/day. For the same compound, the LOAEL (rabbit; [21]) was > 400 mg/kg/day, the NEL (rabbit; [21]) was 250 mg/kg/day and the NOAEL (rabbit; [21]) was ≥ 400 mg/kg/day. It also gave an LEL (rabbit; [18]) of 250 mg/kg/day, an LOAEL (rabbit; [18]) of 250 mg/kg/day and an NEL (rabbit; [19]) of 100 mg/kg/day. The NOAEL (rabbit; [19]) was 100 mg/kg/day, the LEL (rat [8]; [22]) was 16.8 mg/kg/day and the LOAEL (rat [8]; [22]) was 77.6 mg/kg/day. The NEL (rat [8]; [22]) was < 16.8 mg/kg/day, the NOAEL (rat [8]; systemic / in life observation / body weight / body weight gain + systemic / clinical chemistry / alkaline phosphatase (alp/alk) / alkaline …) was 16.8 mg/kg/day and the LEL (dog [9]) was 6.25 mg/kg/day. The LOAEL (dog [9]) was 6.25 mg/kg/day, the NEL (dog [9]) was 1.25 mg/kg/day and the NOAEL (dog [9]) was 1.25 mg/kg/day. The NEL (rat [10]; [23]) was 48 mg/kg/day, the NOAEL (rat [10]; [23]) was 48 mg/kg/day and the LEL (rat [10]; [24]) was 238 mg/kg/day. For the same compound, the LOAEL (rat [10]; [24]) was 238 mg/kg/day, the LEL (rat [10]; [25]) was 42 mg/kg/day and the LOAEL (rat [10]; [25]) was 42 mg/kg/day. For the same compound, the NEL (rat [10]; [26]) was 8 mg/kg/day, the NOAEL (rat [10]; [26]) was 8 mg/kg/day and the LEL (rat [10]; [27]) was 238 mg/kg/day. For the same compound, the LOAEL (rat [10]; [27]) was > 238 mg/kg/day, the NEL (rat [10]; [27]) was 48 mg/kg/day and the NOAEL (rat [10]; [27]) was ≥ 238 mg/kg/day. For the same compound, the LEL (rat [11]; [28]) was 300 mg/kg/day, the LOAEL (rat [11]; [28]) was > 300 mg/kg/day and the NEL (rat [11]; [28]) was < 300 mg/kg/day. For the same compound, the NOAEL (rat [11]; [28]) was ≥ 300 mg/kg/day, the LEL (rat [11]; [29]) was 300 mg/kg/day and the LOAEL (rat [11]; [29]) was 300 mg/kg/day. The NEL (rat [11]; [29]) was < 300 mg/kg/day, the NOAEL (rat [11]; [29]) was < 300 mg/kg/day and the LOAEL (mouse [12]; systemic / pathology microscopic / liver / hypertrophy + systemic / in life observation / body weight / body weight gain) was 59 mg/kg/day. It also gave an LEL (mouse [12]; systemic / pathology microscopic / liver / hypertrophy + systemic / in life observation / body weight / body weight gain + systemic / organ …) of 59 mg/kg/day, an NEL (mouse [12]; [30]) of 11 mg/kg/day and an NOAEL (mouse [12]; [30]) of 11 mg/kg/day.
